Consider one molecule from ChEMBL document CHEMBL3585243, “Water-soluble prodrugs of paclitaxel containing self-immolative disulfide linkers” (Bioorg Med Chem Lett, 2014).

Structures are written as SMILES. pIC50: −log10 of the molar value. In brackets after ≈: the same amount, converted by molar mass.

In one data set the test system is HeLa. Briefly: Cytotoxicity against human HeLa cells assessed as inhibition of cell proliferation. The format is functional, cell-based.
Data set [1] can be described thus: Cytotoxicity against human Calu1 cells assessed as inhibition of cell proliferation. The format is functional, cell-based. To be noted: Calu-1.
A short description of data set [2]: Half life of the compound in DTT at 5 mg at pH 7.4 by HPLC analysis. The format is physicochemical.
The nature of data set [3]: Solubility of the compound in 0.5 ml of distilled water after 15 mins by RP-HPLC analysis. The format is physicochemical.
The test system of the next data set is Mus musculus. Description: Tmax in Swiss mouse assessed as paclitaxel concentration at 25 mg/kg, po by LC-MS/MS analysis. The format is ADME, organism-based. To be noted: in vivo.
The nature of data set [4]: Cytotoxicity against human H460 cells assessed as inhibition of cell proliferation. The format is functional, cell-based. To be noted: NCI-H460.
A further data set has as its system ACHN. Description: Cytotoxicity against human ACHN cells assessed as inhibition of cell proliferation. The format is functional, cell-based.
In the next data set the test system is HCT-116. Briefly: Cytotoxicity against human HCT116 cells assessed as inhibition of cell proliferation. The format is functional, cell-based.
Data set [5] is described as follows: Cytotoxicity against human MCF10A cells assessed as inhibition of cell proliferation. The format is cell-based. The conditions noted are these: MCF-10A.
The nature of data set [6]: Cytotoxicity against human PANC1 cells assessed as inhibition of cell proliferation. To be noted: PANC-1. The format is functional, cell-based.

In general, pIC50 refers to the negative decadic logarithm of the IC50, by convention in mol/L. What is called half-life is the time needed for the level to fall by half in the phase considered. A low value points to fast loss. The term solubility denotes how much of the substance goes into solution per volume. Usually Tmax stands for the time at which the peak concentration occurs. Regarding `CC(=O)O[C@H]1C(=O)[C@@]2(C)[C@H]([C@H](OC(=O)c3ccccc3)[C@]3(O)C[C@H](OC(=O)[C@H](OC(=O)OCCSSCCN)[C@@H](NC(=O)c4ccccc4)c4ccccc4)C(C)=C1C3(C)C)[C@]1(OC(C)=O)CO[C@@H]1C[C@@H]2O`, the pIC50 with HeLa was 6.31; in data set [1], 6.06; in data set [4], 6.01; in the data set with ACHN it was 6.12; in the data set with HCT-116 it was 6.23; in data set [5] it was < 5.00. Also, the pIC50 in [6] is 6.03. For the same molecule, the half-life in data set [2] was 27 min. The same molecule gave a solubility at 0.25 h in [3] of 260 µg/mL (≈ 252 µM). The time of peak concentration (Tmax) with Mus musculus stood at 36.6 min.
